One data set concerns S. aureus and MRSA. The settings on record: cited from earlier work.
The nature of data set [1]: Cytotoxicity in C-33 A cells. It is filed as cell-based. Conditions: human.
Data set [2] relates to Human papillomavirus 11, strain HE611260.1. Kind of data set: HPV-11 NanoLuc reporter replication assay. It is filed as cell-based.
The test system of data set [3] is Herpes simplex virus 1, strain E-377. The experiment in a line: HSV-1 cytopathic effect reduction assay. It is filed as cell-based. Background: Damage to the host cells serves as the signal in cytopathic effect assays.
The test system of data set [4] is Human cytomegalovirus, strain GDGr K17 (resistant isolate). Kind of data set: HCMV resistant isolate cytopathic effect reduction assay. The settings on record: for pEC50 / EC90: Human betaherpesvirus 5, HFF; for pEC50: read-out: EC50 (reduced viral replication by 50%); for EC90: read-out: EC90 (reduced viral replication by 90%). It is filed as cell-based.
The subject of the next data set is E. coli. The settings on record: cited from earlier work.
A further data set concerns P. aeruginosa. The settings on record: cited from earlier work.
A further data set concerns HIV-1. The settings on record: read-out: EC50, inhibition of infectivity of HIV-1 in vitro; cited from earlier work.
Data set [5] relates to Klebsiella pneumoniae ATCC 700603 (MDR). The experiment in a line: Antibacterial growth inhibition / MIC. It is filed as cell-based. The settings on record: hit confirmation.
Data set [6] relates to Acinetobacter baumannii ATCC 19606. Kind of data set: Antibacterial growth inhibition / MIC. Conditions: hit confirmation.

pEC50: −log10 of the molar value. Converted amounts (≈) assume the structure as drawn. “And” between values parts separate entries of the source, which are not always exact repeats. Equal values may be shown once. Read-outs that look alike come from different tables or passages of the source.

One may read the MIC as the lowest concentration found to suppress growth. For “3-amino-3,4-seco-28-amino-lup-4(23),20(29)-dien”, the minimal inhibitory concentration (MIC) with S. aureus and MRSA (MRSA, bacteriostatic effect) was no more than 0.25 µg/mL.
What is called CC50 is the concentration at which the toxic effect on the cells reaches its halfway point. Lower therefore signals greater toxicity to the cells. What is called pEC50 is the negative decadic logarithm of the EC50, by convention in mol/L. Broadly, the EC90 is the point of the concentration-response curve where the effect stands at 90%. `Nc1nc2c(ncn2CCOCP(=O)(O)O)c(=O)[nH]1` [9-[2-(Phosphonomethoxy)ethyl]guanine] yielded a CC50 in data set [1] greater than 150 µM. In addition, the “SI50 selectivity index (CC50/EC50)” value in data set [2] (HPV-11, C-33 A cells) was greater than 221. Also, the pEC50 in data set [2] (human papillomavirus 11, C-33-A, read-out: EC50 (reduced viral replication by 50%)) is 6.17. Besides, the EC90 in [2] (human papillomavirus 11, C-33-A, read-out: EC90 (reduced viral replication by 90%)) was found to be 101 µM.
Turning to `Nc1nc2c(ncn2COCCO)c(=O)[nH]1` [Acyclovir], the “SI50 selectivity index (CC50/EC50)” value in data set [3] (HSV-1 E-377, HFF cells) was >172 and >181. Further, in [3] (Human alphaherpesvirus 1, HFF, read-out: EC90 (reduced viral replication by 90%)), the EC90 is greater than 150 µM. Also, the pEC50 in data set [3] (read-out: EC50 (reduced viral replication by 50%), HSV-1 E-377, HFF cells) was 6.08.
For `Nc1ccn(C[C@@H](CO)OCP(=O)(O)O)c(=O)n1` [Cidofovir], the “SI50 selectivity index (CC50/EC50)” value in [4] (HCMV GDGr K17 (resistant isolate), HFF cells) is given as 120. In addition, in data set [4], the pEC50 was 6.04 and the concentration for an effect of 90% (EC90) is greater than 30 µM.
Regarding `Nc1nc(O)c2ncn(COC(CO)CO)c2n1` [Ganciclovir], in data set [4], the pEC50 was less than 3.82 and the EC90 was greater than 150 µM.
With `CC1(C)CCC2(C(=O)NCCNCCN)CCC3(C)C(=CCC4C5(C)CCC(=O)C(C)(C)C5CCC43C)C2C1` (stereo not shown) [Oleanonic acid amide with diethylentriamine], the MIC was 25 µM (≈ 13.5 µg/mL) in the data set on E. coli and 50 µM (≈ 27 µg/mL) in the data set with P. aeruginosa.
For the compound `C=C(C)[C@@H]1CC[C@]2(C(=O)O)CC[C@]3(C)[C@H](CC[C@@H]4[C@@]5(C)CC[C@H](O)C(C)(C)[C@@H]5CC[C@]43C)[C@@H]12` [betulinic acid], in the data set on HIV-1, the pEC50 was 5.85.
With `C[C@H]1[C@H](C)CC[C@]2(C(=O)O)CC[C@]3(C)C(=CC[C@@H]4[C@@]5(C)CC[C@H](O)C(C)(C)[C@@H]5CC[C@]43C)[C@H]12` [ursolic acid], in the data set with S. aureus and MRSA (MRSA strain), the MIC is 64 µg/mL (≈ 140 µM).
On to Colistin sulfate, for which the “MIC, K. pneumoniae” value in [5] came out at 0.15 µM. Further, the “MIC, A. baumannii” value in data set [6] is 0.15 µM.

The values above are taken from publication PMC8273037 (The Journal of Antibiotics, 2021).
